Data from US9663478B2, “Benzotriazine oxides as drugs targeting Mycobacterium tuberculosis” (priority 2011, dated 2017).
In brackets after ≈: the same amount, converted by molar mass.

Legend:
[1] = tested on: NRP Mtb H37Rv cells; experiment: Low-oxygen recovery assay (LORA) MIC; type: cell-based, Mycobacterium tuberculosis; details: Mycobacterium tuberculosis, H37RV; NRP Mtb; Tables 1-4 and text; read-out: LORA MIC - ITR
[2] = tested on: Mycobacterium abscessus ATCC 19977; experiment: Spectrum of antimicrobial activity; type: cell-based
[3] = tested on: Klebsiella pneumoniae ATCC 43816; experiment: Spectrum of antimicrobial activity; type: cell-based
[4] = tested on: Enterobacter aerogenes ATCC 29751; experiment: Spectrum of antimicrobial activity; type: cell-based
[5] = tested on: Acinetobacter baumannii BAA 1605; experiment: Spectrum of antimicrobial activity; type: cell-based
[6] = tested on: Staphylococcus aureus HA-MRSA NRS 382; experiment: Spectrum of antimicrobial activity; type: cell-based
[7] = tested on: Enterococcus fecalis ATCC 51575; experiment: Spectrum of antimicrobial activity; type: cell-based
[8] = tested on: Salmonella typhimurium -Hisg46 SRI Collection; experiment: Spectrum of antimicrobial activity; type: cell-based
[9] = tested on: Salmonella choleraesuis ATCC 13311; experiment: Spectrum of antimicrobial activity; type: cell-based
[10] = tested on: Enterococcus faecium ATCC 19434; experiment: Spectrum of antimicrobial activity; type: cell-based
[11] = tested on: Salmonella typhimurium tester strain TA98; experiment: Salmonella/microsome plate incorporation assay (Ames screen), TA98; type: cell-based
Description: (§1) A liability in developing any bioreductively-activated antimicrobial drug is the potential for mutagenicity. Because the basis for activity of these compounds is the generation of intermediate radical species, undesirable mutagenicity poses a risk, as has been documented for many classes of bioreductive drugs, including the BTO tirapazamine (TPZ).^19,20 The most convenient methodology for assessing the potential to induce genetic damage is to use the plate incorporation method with Salmonella typhimurium strains TA98 and TA100, commonly known as the Ames assay. The Salmonella tester strains have mutations in the histidine operon, a mutation that leads to defective lipopolysaccharide (rfa), and a deletion that covers genes involved in the synthesis of biotin (bio) and in the repair of ultraviolet-induced DNA damage (uvrB).^21,22 These mutations make the strains more permeable to many molecules and increase their susceptibility to the mutagenic effects of these molecules. Given that the hypothesized mechanism of the BTO compounds is to selectively form cytotoxic radical species in bacteria over mammalian cells, a microbial mutagenicity assay is not ideal, but was used to benchmark their activities in this assay. […] Individual plate counts and their means and standard deviations, along with the condition of the background lawn, are presented in SI Table 2.
(§2) Experimental compounds were screened for microbial mutagenicity activity using the plate incorporation method with Salmonella typhimurium tester strains TA98 and TA100, in the presence and absence of an Aroclor 1254-induced rat-liver metabolic activation system containing 10% S9 (MA). The presence of the appropriate genetic characteristics was verified for the strains used in this study. Stock solutions were made by dissolving each test sample in dimethyl sulfoxide (DMSO) at 5 mg/ml. These initial stock concentrations were then serially diluted to achieve dose formulations of 100, 50, 10, 5, 1, 0.5, and 0.1 μg/plate (dosing volume 100 μl). Test plates were compared with the control plates for their revertant count and for the condition of the background bacterial lawn. A test article was considered a mutagen when the mean number of revertant colonies on the test plates exceeds the mean solvent control counts by at least a two-fold margin. Dose relatedness was also taken into account when evaluating a mutagenic response. Cytotoxicity was estimated by several parameters: a substantial decrease in the number of revertant colonies on the test plates, clearing or absence of the background bacterial lawn growth, formation of pinpoint nonrevertant colonies, or complete absence of bacterial growth.

[12] = tested on: Salmonella typhimurium tester strain TA100; experiment: Salmonella/microsome plate incorporation assay (Ames screen), TA100; type: cell-based
Description: as §1, §2

[13] = Plasma pharmacokinetics in female mice after oral administration; type: in vivo, mouse; details: female Balb/c mice, po 100 mg/kg
[14] = tested on: Vero cells; experiment: Cytotoxicity against Vero cells (Cell Titer-Glo); details: 72 h; Tables 1-4 and text
[15] = TA98, with metabolic activation (10% S9), 0.1 μg per plate
[16] = TA98, with metabolic activation (10% S9), 0.5 μg per plate
[17] = TA98, with metabolic activation (10% S9), 1 μg per plate
[18] = TA98, with metabolic activation (10% S9), 5 μg per plate
[19] = TA98, with metabolic activation (10% S9), 10 μg per plate
[20] = TA98, with metabolic activation (10% S9), 50 μg per plate
[21] = TA98, with metabolic activation (10% S9), 100 μg per plate
[22] = TA98, without metabolic activation, 0.1 μg per plate
[23] = TA98, without metabolic activation, 0.5 μg per plate
[24] = TA98, without metabolic activation, 1 μg per plate
[25] = TA98, without metabolic activation, 5 μg per plate
[26] = TA98, without metabolic activation, 10 μg per plate
[27] = TA98, without metabolic activation, 50 μg per plate
[28] = TA98, without metabolic activation, 100 μg per plate
[29] = presence and absence of metabolic activation
[30] = TA100, with metabolic activation (10% S9), 0.1 μg per plate
[31] = TA100, with metabolic activation (10% S9), 0.5 μg per plate
[32] = TA100, with metabolic activation (10% S9), 1 μg per plate
[33] = TA100, with metabolic activation (10% S9), 5 μg per plate
[34] = TA100, with metabolic activation (10% S9), 10 μg per plate
[35] = TA100, with metabolic activation (10% S9), 50 μg per plate
[36] = TA100, with metabolic activation (10% S9), 100 μg per plate
[37] = TA100, without metabolic activation, 0.1 μg per plate
[38] = TA100, without metabolic activation, 0.5 μg per plate
[39] = TA100, without metabolic activation, 1 μg per plate
[40] = TA100, without metabolic activation, 5 μg per plate
[41] = TA100, without metabolic activation, 10 μg per plate
[42] = TA100, without metabolic activation, 50 μg per plate
[43] = TA100, without metabolic activation, 100 μg per plate

[O-][n+]1nc(N2CCCC2)[n+]([O-])c2cc3c(cc21)CCC3 [Compound 20q, 3-(pyrrolidin-1-yl)-7,8-dihydro-6H-indeno[5,6-e][1,2,4]triazine 1,4-dioxide]
MIC [1]: 0.99 µg/mL (≈ 3.64 µM) | susceptibility of M. abscessus [2]: resistant | Antimicrobial activity, Mycobacterium abscessus ([2]; ATCC 19977): >32 µg/mL | Antimicrobial activity, Klebsiella pneumoniae [3]: >32 µg/mL | Antimicrobial activity, Enterobacter aerogenes [4]: >32 µg/mL | Antimicrobial activity, Acinetobacter baumannii [5]: >32 µg/mL | Antimicrobial activity, Staphylococcus aureus HA-MRSA [6]: >32 µg/mL | Antimicrobial activity, Enterococcus fecalis [7]: >32 µg/mL | Antimicrobial activity, Salmonella typhimurium -Hisg46 [8]: >32 µg/mL | Antimicrobial activity, Salmonella choleraesuis [9]: >32 µg/mL | Antimicrobial activity, Enterococcus faecium [10]: >32 µg/mL | Mean revertants per plate [11, 15]: 39.5 | Ratio treated/solvent [11, 15]: 1.4 | Mean revertants per plate [11, 16]: 30.0 | Ratio treated/solvent [11, 16]: 1.1 | Mean revertants per plate [11, 17]: 47.5 | Ratio treated/solvent [11, 17]: 1.7 | Mean revertants per plate [11, 18]: 124.0 | Ratio treated/solvent [11, 18]: 4.5 | Mean revertants per plate [11, 19]: 266.5 | Ratio treated/solvent [11, 19]: 9.8 | Mean revertants per plate [11, 20]: 988.0 | Ratio treated/solvent [11, 20]: 36.1 | Mean revertants per plate [11, 21]: 1566.0 | Ratio treated/solvent [11, 21]: 57.3 | Mean revertants per plate [11, 22]: 33.0 | Ratio treated/solvent [11, 22]: 1.0 | Mean revertants per plate [11, 23]: 50.5 | Ratio treated/solvent [11, 23]: 1.6 | Mean revertants per plate [11, 24]: 85.0 | Ratio treated/solvent [11, 24]: 2.7 | Mean revertants per plate [11, 25]: 241.0 | Ratio treated/solvent [11, 25]: 7.5 | Mean revertants per plate [11, 26]: 378.5 | Ratio treated/solvent [11, 26]: 11.8 | Mean revertants per plate [11, 27]: 797.0 | Ratio treated/solvent [11, 27]: 24.9 | Mean revertants per plate [11, 28]: 1133.0 | Ratio treated/solvent [11, 28]: 35.4 | number of revertant colonies, TA98 [11, 29]: dose-related increases in the number of revertant colonies | Mean revertants per plate [12, 30]: 171.5 | Ratio treated/solvent [12, 30]: 1.1 | Mean revertants per plate [12, 31]: 204.0 | Ratio treated/solvent [12, 31]: 1.3 | Mean revertants per plate [12, 32]: 180.5 | Ratio treated/solvent [12, 32]: 1.1 | Mean revertants per plate [12, 33]: 267.0 | Ratio treated/solvent [12, 33]: 1.7 | Mean revertants per plate [12, 34]: 291.5 | Ratio treated/solvent [12, 34]: 1.8 | Mean revertants per plate [12, 35]: 700.5 | Ratio treated/solvent [12, 35]: 4.4 | Mean revertants per plate [12, 36]: 916.0 | Ratio treated/solvent [12, 36]: 5.8 | Mean revertants per plate [12, 37]: 173.0 | Ratio treated/solvent [12, 37]: 1.2 | Mean revertants per plate [12, 38]: 155.0 | Ratio treated/solvent [12, 38]: 1.0 | Mean revertants per plate [12, 39]: 206.0 | Ratio treated/solvent [12, 39]: 1.4 | Mean revertants per plate [12, 40]: 303.0 | Ratio treated/solvent [12, 40]: 2.0 | Mean revertants per plate [12, 41]: 392.0 | Ratio treated/solvent [12, 41]: 2.6 | Mean revertants per plate [12, 42]: 1033.5 | Ratio treated/solvent [12, 42]: 7.0 | Mean revertants per plate [12, 43]: 1468.0 | Ratio treated/solvent [12, 43]: 9.9 | number of revertant colonies, TA100 [12, 29]: dose-related increases in the number of revertant colonies | plasma drug concentration at the 24 hr time point [13]: lower than the limit of quantitation | Vero Tox CC50 [14]: 25 µg/mL
